Data: PMC10940318, “Targeted intracellular delivery of dimeric STINGa by two pHLIP peptides for treatment of solid tumors” (Frontiers in Pharmacology, 2024)

Legend:
[1] = Stopped-flow fluorescence kinetics of membrane insertion and exit; format: physicochemical; conditions: POPC liposomes
Procedure: Fluorescence kinetics was measured using a SFM-300 mixing system (Bio-Logic Science Instruments) in combination with the MOS-450 spectrometer with the temperature control set to 25°C. All samples were degassed before measurement to minimize air bubbles in the samples. pHLIP-mMSA/2pHLIP-dMSA and POPC samples were incubated overnight to reach equilibrium, when most of the agent was associated with liposome lipid bilayers. […] To follow exit of pHLIP-mMSA/2pHLIP-dMSA from the membrane, a low pH solution containing 14 μM pHLIP-mMSA/2pHLIP-dMSA and 2.8 mM POPC was mixed with dibasic phosphate buffer to raise the pH from 4 to 7.4. To monitor the fluorescence intensity changes during pHLIP-mMSA/2pHLIP-dMSA insertion induced by the pH change, the emission signal was observed through a cut-off 320 nm filter at an excitation of 295 nm.

CT26 tumors = test: Cytokine levels in tumor and serum by ELISA; format: in vivo, Balb/c mice
Procedure: To establish levels of cytokines in blood and tumor samples, 5 × 10^4 CT26 cancer cells were injected SQ in 100 µL of growth medium into the right flank of female Balb/c mice. When tumors reached 250–500 mm^3 in volume, the mice received a single IP injection of 300 μM 500 µL 2pHLIP-dMSA or no injections. Animals were euthanized at 6- and 24-h post-injection, blood and tumors were collected. Blood samples were kept for 40 min at RT, centrifuged at 5,000 g for 20 min at +4°C and supernatant (serum) was collected. Tumors were frozen in liquid nitrogen. Both the serum and the tumor tissue samples were kept at −80°C until further processing and analysis. The tumor samples were processed while on ice, using a bullet blender (Next Advance) with 1 mm diameter zirconium silicate beads (Next Advance). The supernatant of the processed tumors was used for enzyme-linked immunoassay (ELISA) assays. Matched antibody pair kits for mouse TNF alpha (Sino Biological), mouse IL-6 (Abcam), mouse IFN gamma (Invitrogen), mouse IFN beta (Bio-Techne), and a precoated mouse IFN alpha kit (Invitrogen) were used. For TNF alpha and IFN beta the capture antibodies were diluted in PBS (Cytiva), while the IL-6 and IFN gamma capture antibodies were diluted in their respective coating buffers. The diluted capture antibodies were incubated in the plates overnight at +4°C and washed the next day with PBS/Tween washing buffer (Sigma-Aldrich). The TNF alpha plate was blocked using 2% BSA (Thermo-Scientific) diluted in washing buffer, the IFN beta plate was blocked using 1% BSA diluted in PBS, while the IFN alpha, IFN gamma, and IL-6 plates were blocked using their respective dilution buffers. Blocking was done for 2 h at RT on an orbital shaker at 200 rpm. After blocking, the plates were washed and then incubated with the diluted tumor and serum samples along with the corresponding standard solutions for each ELISA kit. The samples were incubated for 2 h at RT on an orbital shaker at 200 rpm. The TNF alpha plate was incubated for 1 h at RT with a diluted detection antibody conjugated with horseradish peroxidase (HRP). The IL-6, IFN alpha, IFN beta, and IFN gamma plates were incubated for 1 h at RT with a diluted detection antibody conjugated with biotin followed by incubation for 1 h at RT with their respective diluted HRP-streptavidin conjugates. All plates were washed and incubated with 3,3′,5,5′-tetramethylbenzidine (TMB) (Invitrogen) and peroxide solution mixed at a ratio of 1:1 (Thermo Scientific) for up to 20 min, then a stop solution (10% H2SO4) was added to the plates. The signal from the wells was quantified by absorbance measured at 450 nm using a Bio-Rad iMark microplate reader. Antibody standards were used to plot calibration curves.

[2] = Stability in human plasma; format: in vitro ADME; conditions: single donor human plasma, 200 µM, 0-24 h at 37°C, methanol precipitation, HPLC C18, UV 220/280/325 nm
Procedure: Plasma proteins were precipitated by methanol (1:5 volume ratio of plasma to methanol) and centrifuged for 10 min at 13.4 rpm. The supernatant was collected and analyzed by HPLC using a Zorbax SB-C18 4.6 × 250 mm, 5 μm column with a gradient from 20% to 80% acetonitrile in water containing 0.05% TFA. Chromatograms were recorded at 220 nm, 280 nm and 325 nm.

[3] = Stability in mouse plasma; conditions: BALB/c mouse plasma, 200 µM, 0-24 h at 37°C, methanol precipitation, HPLC C18, UV 220/280/325 nm
Procedure: Plasma proteins were precipitated by methanol (1:5 volume ratio of plasma to methanol) and centrifuged for 10 min at […]. The supernatant was collected and analyzed by HPLC using a Zorbax SB-C18 4.6 × 250 mm, 5 μm column with a gradient from 20% to 80% acetonitrile in water containing 0.05% TFA. Chromatograms were recorded at 220 nm, 280 nm and 325 nm.

CT26 cancer cells = test: Re-challenge of tumor-free mice with CT26 cancer cells; format: in vivo, Balb/c mice; conditions: 11 survivors of both dose groups, contralateral flank, kept 40 more days
Source text: In the 2pHLIP-dMSA treated groups the mice that stayed tumor-free were re-challenged with tumor cells injected into the tumor-free flank on day 65 after the first injection of 2pHLIP-dMSA. Tumor-free mice were kept for an additional 40 days (total of 105 days after the treatment with 2pHLIP-dMSA) and then were euthanized.

[4] = Body weight of treated mice; format: in vivo, Balb/c mice; conditions: two IP injections, 300 µM or 100 µM 500 µL, days 1 and 3
Procedure: For the treatment of CT26 tumors, 5 × 10^4 CT26 murine colorectal cancer cells (ATCC, CRL-2638) were injected subcutaneously (SQ) in 100 μL of growth medium into the right flank of female Balb/c mice ranging in age from 7 to 9 weeks (Envigo RMS, Inc.). […] 2pHLIP-dMSA was given as two IP injections of 300 μM 500 μL or 100 μM 500 μL (low dose). The compounds were dissolved in DMSO as a stock solution and transferred to PBS (vehicle). The residual DMSO in the final solution injected into animals was less than 2%. Tumor volume and body weight were measured 3 times per week throughout the study. Measurements of tumors were performed using calipers, and the tumor volume (V) was calculated with the formula: V=0.52∙L∙W^2 where L is the length and W is the width of the measured tumor. Mice were removed from the study and euthanized when the tumor volume was greater than 2,000 mm^3.

[5] = single IP injection 300 µM 500 µL, 6 and 24 h

Sequence: ADQDNPWRAYLDLLFPTDTLLLDLLWCG [2pHLIP-dMSA]
- time to completion of insertion into the lipid bilayer ([1]; pH drop from pH 7.4 to 4, 25°C, fluorescence ex 295 nm): ≤ 100 ms
- kinetics of membrane insertion (in words) ([1]; pH drop from pH 7.4 to 6, compared with pHLIP-mMSA): more efficient and faster than the insertion of pHLIP-mMSA
- exit from the lipid bilayer (in words) ([1]; pH rise from pH 4 to 7.4 and from pH 4 to 5.5, compared with pHLIP-mMSA): slightly slower
- IL-6 level in blood (Figure 4D, in words) (CT26 tumors; 6 h after single IP injection 300 µM 500 µL, returned to normal at 24 h): slight increase
- increase of TNF-α level in tumors (CT26 tumors; 6 h after single IP injection 300 µM 500 µL, vs untreated mice): 23 fold
- TNF-α level in tumors (in words) (CT26 tumors; 24 h after single IP injection 300 µM 500 µL): fell to a normal level
- level of IFN-α in tumors and serum (in words) (CT26 tumors; [5]): did not change much
- level of IFN-γ in tumors and serum (in words) (CT26 tumors; [5]): did not change much
- TNF-α level in serum (in words) (CT26 tumors; single IP injection 300 µM 500 µL, treated and untreated mice): insignificant
- IFN-β level in serum (in words) (CT26 tumors; single IP injection 300 µM 500 µL, two orders of magnitude lower than in tumors): slight increase
- increase of tumor level of IFN-β (CT26 tumors; single IP injection 300 µM 500 µL, vs untreated mice): 8 fold
- stability in human plasma (in words) [2]: very high
- stability in mouse plasma (in words) [3]: low
- tumor development after re-injection of cancer cells on day 65 (CT26 cancer cells): none of them developed tumors
- body weight change after treatment (in words) [4]: temporary weight loss followed by complete recovery and regain of weight
